System: wild type C. elegans
Experiment: Longevity curves of C. elegans in the presence of the steroid sulfatase inhibitor
Assay type: in vivo
Settings: for longevity (longevity curve) versus control population exposed to the inhibitor solvent (DMSO): 25° C., p=0.0139, n>100, FIG. 3
Experimental: In order to generate the longevity curves, the strains under study and their pertinent controls were first subjected to an egg preparation in order to prevent contaminations and synchronise them at the embryonic stage, and, subsequently, they were incubated at 16° C. In order to prevent interferences caused by physiological stresses resulting from this process, they were allowed to grow to the following generation. 5 or 6 L4 per plate were then transferred to 4 plates, and were once again incubated at 16° C. to L4, the stage selected to start the longevity curves.
On day zero, 120 L4 of each strain were transferred to new plates, 20 worms per plate, and incubated at the temperature at which the assay was subsequently performed, i.e. 25° C.
During the first week of the curves, the nematodes were transferred to new plates every 2 days, in order to prevent confusions with potential descendants. Subsequently, they were checked every 2 or 3 days, and those specimens that were lost or dead for non-physiological reasons were withdrawn from the study. The individuals were transferred to new plates every 5 days in order to maintain optimal growth conditions in the plates. The specimens were considered to be dead when they ceased to respond upon being softly touched with the platinum wire.
The longevity was studied in the presence of the steroid sulfatase inhibitor STX64 (SIGMA, S1950-5MG) diluted in DMSO at 5 μg/μl. […] The preparation and synchronisation of the nematodes until day=0 was the same as in the preceding case, the only difference being that the nematodes were transferred to fresh plates every two or three days until the curve was completed.
We used the GraphPad Prism 5 programme (Version 5.0a, for Mac OS X. 1992-2008 GraphPad Software, Inc.) in the survival curve mode to represent the longevity curves, and the Kaplan-Meier method was used to perform the statistical analysis thereof. […]

Compound: NS(=O)(=O)Oc1ccc2c3c(c(=O)oc2c1)CCCCC3 [STX64, Irosustat]
- effect of treatment on ageing (C. elegans, FIG. 3): delayed ageing
- longevity (longevity curve) versus control population exposed to the inhibitor solvent (DMSO) (wild type population supplemented with 0.5 μg/ml): lives significantly longer
- longevity (longevity curve) versus control population exposed to the inhibitor solvent (DMSO) (wild type population supplemented with 1 μg/ml): lives significantly longer

— patent US20160361244A1, “USE OF THE INHIBITOR OF STEROID SULFATASES STX64 FOR TREATING AGING” (U[…] DE OLAVIDE, priority 2013, published 2016)
